# Test results published in US5254565A, “Quinoline derivatives, their production and use” (priority 1988, dated 1993).
# Target: T1, Acyl-CoA : cholesterol acyltransferase (ACAT) (Rattus norvegicus, UniProt Q7TQM4)
# T1 construct: from the mucosal microsome fraction of the small intestine of male, 6-week old Sprague-Dawley rats; from tissue; host or cells: mucosal microsome fraction of the small intestine of male 6-week old Sprague-Dawley rats, fasted for 20 hours
# T1 sequence (Q7TQM4 1-524): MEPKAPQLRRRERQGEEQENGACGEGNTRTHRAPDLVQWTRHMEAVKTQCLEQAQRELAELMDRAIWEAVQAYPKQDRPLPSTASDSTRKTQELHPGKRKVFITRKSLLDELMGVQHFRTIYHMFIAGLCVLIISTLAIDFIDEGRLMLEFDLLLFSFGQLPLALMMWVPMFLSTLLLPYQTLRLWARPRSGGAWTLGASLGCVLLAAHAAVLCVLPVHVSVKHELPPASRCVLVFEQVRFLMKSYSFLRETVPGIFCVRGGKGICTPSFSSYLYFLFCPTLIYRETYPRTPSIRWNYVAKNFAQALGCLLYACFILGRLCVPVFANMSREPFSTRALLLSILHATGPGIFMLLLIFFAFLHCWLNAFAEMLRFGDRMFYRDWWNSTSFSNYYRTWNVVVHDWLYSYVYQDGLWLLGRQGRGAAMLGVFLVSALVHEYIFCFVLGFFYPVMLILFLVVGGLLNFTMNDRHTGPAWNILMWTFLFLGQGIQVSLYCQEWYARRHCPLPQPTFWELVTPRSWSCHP
# Test: Acyl-CoA : cholesterol acyltransferase (ACAT) inhibitory activity: production of labeled cholesterol ester from [1-^14 C] oleoyl-CoA and endogenous cholesterol
# Format: biochemical
# Settings: not given
# Experimental: 1. Acyl-CoA : cholesterol acyltransferase (ACAT) inhibitory activity.
# The enzyme ACAT was prepared by the method of Heider et al. described in Journal of Lipid Research, Vol. 24, page 1127 (1982), from the mucosal microsome fraction of the small intestine of male, 6-week old Sprague-Dawley rats which had been fasted for 20 hours.
# ACAT activity was calculated by the method of Helgerud et al. described in Journal of Lipid Research, Vol. 22, page 271 (1981), namely, by measuring the amount of the labeled cholesterol ester produced from [1-^14 C] oleoyl-CoA and endogenous cholesterol.
# Inhibition rates (%) of the production of the labeled cholesterol ester wherein 10^-6 M-10^-8 M of test compounds were added are shown as an index of ACAT inhibitory activity in Table 1.
row,Structure (SMILES),ACAT inhibitory activity (in words)
1,"O=C(Nc1ccc(Cl)cc1)Nc1cnc2ccc(Cl)cc2c1-c1ccccc1 [Compound B, 6-chloro-3-[3-(4-chlorophenyl)ureido]-4-phenylquinoline, reference compound]",excellent ACAT inhibitory activities

# Same assay, conditions: 10^-6 M test compound; read-out: ACAT Inhibition Rate
row,Structure (SMILES),inhibition at 1 µM
1,"O=C(Nc1ccc(F)cc1F)Nc1cnc2ccc(Cl)cc2c1-c1ccc(O)c(O)c1 [Example 75, 6-chloro-3-[3-(2,4-difluorophenylureido]-4-(3,4-dihydroxyphenyl)quinoline.1/2hydrate]",61.2%
2,"COc1ccc2ncc(NC(=O)Nc3ccc(F)cc3F)c(-c3ccccc3)c2c1 [Example 18, 3-[3-(2,4-Difluorophenyl)ureido]-6-methoxy-4-phenylquinoline]",85.9%
3,"Cc1ccccc1-c1c(NC(=O)Nc2ccc(F)cc2F)cnc2ccc(Cl)cc12 [Example 27, 6-Chloro-3-[3-(2,4-difluorophenyl)ureido]-4-(2-methylphenyl)quinoline]",97.2%
4,"O=C(Nc1ccc(F)cc1F)Nc1cnc2ccccc2c1-c1ccccc1Cl [Example 21, 4-(2-Chlorophenyl)-3-[3-(2,4-difluorophenyl)ureido]quinoline]",91.8%
5,"Cc1cc(C)c2ncc(NC(=O)Nc3c(F)cc(F)cc3F)c(-c3ccccc3Cl)c2c1 [Example 62, 4-(2-chlorophenyl)-6,8-dimethyl-3-[3-(2,4,6-trifluorophenyl)ureido]quinoline]",97.3%
6,"O=C(Nc1ccc(F)cc1F)Nc1cnc2ccc(Cl)cc2c1-c1cccc(Cl)c1 [Example 24, 6-Chloro-4-(3-chlorophenyl)-3-[3-(2,4-difluorophenyl)ureido]quinoline]",88.5%
7,"COc1ccc(-c2c(NC(=O)Nc3ccc(F)cc3F)cnc3ccc(Cl)cc23)c(OC)c1OC [Example 68, 6-Chloro-3-[3-(2,4-difluorophenyl)ureido]-4-(2,3,4-trimethoxyphenyl)quinoline]",98%
8,"Cc1cc(Cl)c2ncc(NC(=O)Nc3ccc(F)cc3F)c(-c3ccccc3Cl)c2c1 [Example 55, 8-Chloro-4-(2-chlorophenyl)-3-[3-(2,4-difluorophenyl)ureido]-6-methylquinoline]",97.6%
9,COc1ccccc1-c1c(NC(=O)Nc2ccc(F)cc2F)cnc2ccc(Cl)cc12 [Example 29],98.2%
10,"O=C(Nc1ccc(F)cc1F)Nc1cnc2ccc(OC(F)F)cc2c1-c1ccccc1 [Example 54, 6-Difluoromethoxy-3-[3-(2,4-difluorophenyl)ureido]-4 4-phenylquinoline]",80.7%
11,"O=C(Nc1ccccc1F)Nc1cnc2ccc(Cl)cc2c1-c1ccccc1 [Example 4, 6-Chloro-3-[3-(2-fluorophenyl)ureido]-4-phenylquinoline]",75%
12,"Cc1cc(C)c2ncc(NC(=O)Nc3cc(C(C)C)c(O)c(C(C)C)c3)c(-c3ccccc3Cl)c2c1 [Example 79, 4-(2-chlorophenyl)-3-[3-(4-hydroxy-3,5-diisopropylphenyl)ureido]-6,8-dimethylquinoline]",79.9%
13,"Cc1cc(C)c2ncc(NC(=O)Nc3ccc(F)cc3F)c(-c3ccccc3C)c2c1 [Example 39, 3-[3-(2,4-Difluorophenyl)ureido]-6,8-dimethyl-4-(2-methylphenyl)quinoline]",98.5%
14,"O=C(Nc1ccc(F)cc1F)Nc1cnc2ccc(Cl)cc2c1-c1ccccc1 [Example 1, 6-chloro-3-[3-(2,4-difluorophenyl)ureido]-4-phenylquinoline]",88.3%
15,"CCc1ccc2ncc(NC(=O)Nc3ccc(F)cc3F)c(-c3ccccc3Cl)c2c1 [Example 33, 4-(2-Chlorophenyl)-3-[3-(2,4-difluorophenyl)ureido]-6-ethylquinoline]",99.2%
16,"O=C(Nc1ccc(F)cc1F)Nc1cnc2ccc(Cl)cc2c1-c1ccc(Cl)cc1 [Example 25, 6-Chloro-4-(4-chlorophenyl)-3-[3-(2,4-difluorophenyl)ureido]quinoline]",77%

row,Structure (SMILES),inhibition at 1 µM
1,"Cc1cc(C)c2ncc(N(Cc3cc(C(C)(C)C)c(O)c(C(C)(C)C)c3)C(=O)Nc3ccc(F)cc3F)c(-c3ccccc3Cl)c2c1 [Example 67, 3-[1-(3,5-Di-tert-butyl-4-hydroxybenzyl)-3-(2,4-difluorophenyl)ureido]-4-(2-chlorophenyl)-6,8-dimethylquinoline]",90.1%
2,"O=C(Nc1ccc(F)cc1F)Nc1cnc2ccc(Br)cc2c1-c1ccccc1 [Example 11, 6-Bromo-3-[3-(2,4-difluorophenyl)ureido]-4-phenylquinoline]",85.5%
3,"CSc1ccccc1-c1c(NC(=O)Nc2ccc(F)cc2F)cnc2ccc(C)cc12 [Example 59, 3-[3-(2,4-Difluorophenyl)ureido]-6-mehtyl-4-(2-mehtylthiophenyl)quinoline]",97.5%
4,"CC(C)c1ccc2ncc(NC(=O)Nc3ccc(F)cc3F)c(-c3ccccc3)c2c1 [Example 15, 3-[3-(2,4-Difluorophenyl)ureido]-6-isopropyl-4-phenylquinoline]",91.6%
5,"COc1ccc(-c2c(NC(=O)Nc3ccc(F)cc3F)cnc3ccc(Cl)cc23)cc1OC [Example 60, 6-Chloro-3-[3-(2,4-difluorophenyl)ureido]-4-(3,4-dimethoxyphenyl)quinoline]",95.1%
6,"O=C(Nc1ccc(F)cc1F)Nc1cnc2ccc(SC(F)F)cc2c1-c1ccccc1 [Example 53, 6-Difluoromethylthio-3-[3-(2,4-difluorophenyl)ureido]-4-phenylquinoline]",85.7%
7,"O=C(Nc1ccc(Cl)cc1)Nc1cnc2ccc(Cl)cc2c1-c1ccccc1 [Compound B, 6-chloro-3-[3-(4-chlorophenyl)ureido]-4-phenylquinoline, reference compound]",54.5%
8,"Cc1cc(C)c2ncc(NC(=O)Nc3ccc([N+](=O)[O-])cc3)c(-c3ccccc3Cl)c2c1 [Example 72, 4-(2-Chlorophenyl)-3-[3-(4-nitrophenyl)ureido]-6,8-dimethylquinoline]",97.3%
9,"Cc1ccccc1-c1c(NC(=O)Nc2ccc(F)c([N+](=O)[O-])c2)cnc2ccc(Cl)cc12 [Example 58, 6-Chloro-3-[3-(4-fluoro-3-nitrophenyl)ureido]-4-(2-methylphenyl)quinoline]",88.5%
10,"CCc1ccc2ncc(NC(=O)Nc3ccc(F)cc3F)c(-c3ccccc3)c2c1 [Example 14, 3-[3-(2,4-Difluorophenyl)ureido]-6-ethyl-4-phenylquinoline]",90.1%
11,"Cc1cc(C)c2ncc(NC(=O)Nc3c(C)cccc3C)c(-c3ccccc3Cl)c2c1 [Example 70, 4-(2-Chlorophenyl)-6,8-dimethyl-3-[3-(2,6-dimethyl-phenyl)ureido]quinoline]",97.9%
12,"CC(C)c1ccc2ncc(NC(=O)Nc3ccc(F)cc3F)c(-c3ccccc3Cl)c2c1 [Example 34, 4-(2-Chlorophenyl)-3-[3-(2,4-difluorophenyl)ureido]-6-isopropylquinoline]",99.3%
13,"Cc1ccc2ncc(NC(=O)Nc3ccc(F)cc3F)c(-c3ccccc3)c2c1 [Example 13, 3-[3-(2,4-Difluorophenyl)ureido]-6-methyl-4-phenylquinoline]",84.5%
14,"O=C(Nc1cnc2ccc(Cl)cc2c1-c1ccccc1)Nc1c(F)cccc1F [Example 46, 6-chloro-3-[3-(2,6-difluorophenyl)ureido]-4-phenylquinoline]",75.7%
15,"Cc1cc(C)c2ncc(NC(=O)Nc3c(C(C)C)cccc3C(C)C)c(-c3ccccc3Cl)c2c1 [Example 71, 4-(2-Chlorophenyl)-3-[3-(2,6-diisopropylphenyl)ureido]-6,8-dimethylquinoline]",98%

# Same assay, conditions: 10^-8 M test compound; read-out: ACAT Inhibition Rate
row,Structure (SMILES),inhibition at 0.01 µM
1,"Cc1cc(C)c2ncc(NC(=O)Nc3ccc(F)cc3F)c(-c3ccccc3C)c2c1 [Example 39, 3-[3-(2,4-Difluorophenyl)ureido]-6,8-dimethyl-4-(2-methylphenyl)quinoline]",43.3%

# Same assay, conditions: listed as compound B
row,Structure (SMILES),ACAT inhibitory activity (in words)
1,"O=C(Nc1ccc(Cl)cc1)Nc1cnc2ccc(Cl)cc2c1-c1ccccc1 [Compound B, 6-chloro-3-[3-(4-chlorophenyl)ureido]-4-phenylquinoline, reference compound]",strong ACAT inhibitory activity
